Experimental findings from paper PMC13313556, “Development and characterization of triazole-based WDR5 inhibitors for the treatment of glioblastoma” (JCI Insight, 2026) are described below.

The nature of series [1]: In vivo intraperitoneal plasma:brain level (PBL) studies. Also noted: species or system mice. The following applies: for Kp: male. How it is done:
In Vivo Intraperitoneal Plasma:Brain Level (PBL) Studies
Core (RMPC) at the Vanderbilt University Medical Center (VUMC) Metabolic Physiology Shared Resource Core (MPSR). The studies were performed according to guidelines […]
approved by the Institutional Animal Care and Use Committee (IACUC) of VUMC following the guidance of the Association for Assessment and Accreditation of Laboratory Animal Care (AAALAC). Male CD-1 mice (Charles River Laboratories, Wilmington, MA) were overnight fasted on the evening prior to study. On the morning of study mice were weighed and allowed to acclimate to the room for at least 30 minutes prior to dosing.
Food was returned 3 hr after intraperitoneal dosing. At time zero IP of test article was given (20% β-HPCD, 1-10 mg/mL with addition of 1N HCl per molar equivalent of test article, N=8 mice, two per timepoint). At 0.5, 1, 3, and 6 h post-dose, mice were placed into a plane of anesthesia using Isoflurane. A terminal blood sample was collected via cardiac puncture followed by immediate euthanasia and brain collection. Brain was washed with cold PBS or Saline, blotted dry on a piece of gauze, weighed, and flash frozen in liquid nitrogen. Whole blood was centrifuged at 5000 x g for 5 minutes and plasma was removed into a fresh tube for storage. All samples were stored at -80 °C until shipment on dry ice for bioanalysis at Q2 Solutions. […]
conducted at Medicilon Inc. DMPK (CRO, Shanghai) using a similar protocol as above using modified timepoints (5 min, 15 min, 30 min, 1, 3, and 8 h), male ICR mice, and a […]
cyclodextrin). The blood was taken via submandibular vein or other suitable vein, 0.03 mL/time point. Samples were placed in tubes containing K2-EDTA and stored on ice until centrifuged. The blood samples were centrifuged at 6800 x g for 6 minutes at 2-8°C within 1h after collection and stored frozen at -80°C. After blood sample collection, the brain was removed, rinsed with saline, dried with filter paper, placed into labeled EP tubes (1 tube/tissue/animal/time point, and frozen at -80°C prior to bioanalysis. The analytical […]
results were validated using a calibration curve to lower limit of quantification of 2 ng/mL for parent analyte with tolbutamide as an internal standard. […]

Series [2] has as its system L2 CSCs. As to the kind of experiment: 7-day CTG viability assay (GI50, cross-titrations, irradiation) in L2. The format is cell-based, human. The following applies: for GI50: Homo sapiens. How it is done: (§1) For GI50 determination, compounds were stamped in technical triplicate, while for synergy cross-titrations dose-response matrices were prepared in technical duplicate. Different CSC lines, grown in suspension as spheroids, were split with Accutase and seeded directly on top of the prestamped compounds (50 μL of NBMc and 700 cells/well). The outer 4 rows (A,B and O,P row IDs) and 4 columns (1,2 and 23,24 column IDs) were filled with 80 μL of PBS to minimize evaporation. Cells were incubated with compounds for 7 days at 37°C/5% CO2 prior to the addition of 25 μL/well Cell-Titer Glo (Promega) and luminescence quantification on a Revvity EnVision plate reader. […] For the cross-titrations of 2 compounds, synergy scores were calculated using the MuSyC webserver ([79]). […]
(§2) antagonist (p53 activator) RG7112 following either 0 Gy or 2 Gy irradiation. Mean values are presented from a single biological replicate conducted in technical triplicate. Follow- […]
(§3) Cell viability was quantified as described in the Materials and Methods four days post-irradiation (seven days total). The

For series [3], the system named is 3832 CSCs. The experiment in a line: 7-day CTG viability assay (GI50, cross-titrations, irradiation) in 3832. The format is cell-based, human. How it is done: as §1, §2, §3
Series [4] in a line: In situ brain perfusion. Format: in vivo, mice. Particulars: 2-minute perfusion, 10 μM.
Experimental: To evaluate the permeability across the blood-brain barrier of WDR5 inhibitors in the absence of hepatic clearance, we utilized the in situ brain perfusion technique. Mice were anesthetized via i.p. injection of 100 mg/kg ketamine and 80 mg/kg xylazine. The peritoneal cavity was exposed, the descending aorta was clamped, and the right atrium was cut to prevent venous return to the heart. A 28G butterfly winged infusion catheter (Terumo Medical Care Solutions) was inserted into the left ventricle and mice were perfused with a modified physiological buffer containing 10 μM WDR5 inhibitor ([99]). […] To determine brain uptake of WDR5 inhibitors, mice were perfused for 120 seconds. The experiment was concluded by decapitation of the mouse. Following termination, the brain was rapidly removed and placed on ice. Inhibitor concentration in both brain and blood was determined by liquid chromatography tandem mass spectroscopy (Q2 Solutions). The unidirectional uptake transfer constant (Kin) was calculated by the following relationship ([100]):
Where Qbr is the concentration of WDR5 inhibitor in brain (ng/g) corrected for residual inhibitor remaining in cerebrovasculature at the end of the perfusion time frame, Cpf is the perfusion fluid concentration of WDR5 inhibitor (ng/mL), T is the time length of the perfusion experiment, and V0 is the vascular volume of the WDR5 inhibitor (mL/g).
For series [5], the target named is T1, P-glycoprotein (MDR1) (Homo sapiens, UniProt P08183).
T1 construct: host or cells: MDR1-MDCK cell monolayers
T1 sequence (P08183 whole entry): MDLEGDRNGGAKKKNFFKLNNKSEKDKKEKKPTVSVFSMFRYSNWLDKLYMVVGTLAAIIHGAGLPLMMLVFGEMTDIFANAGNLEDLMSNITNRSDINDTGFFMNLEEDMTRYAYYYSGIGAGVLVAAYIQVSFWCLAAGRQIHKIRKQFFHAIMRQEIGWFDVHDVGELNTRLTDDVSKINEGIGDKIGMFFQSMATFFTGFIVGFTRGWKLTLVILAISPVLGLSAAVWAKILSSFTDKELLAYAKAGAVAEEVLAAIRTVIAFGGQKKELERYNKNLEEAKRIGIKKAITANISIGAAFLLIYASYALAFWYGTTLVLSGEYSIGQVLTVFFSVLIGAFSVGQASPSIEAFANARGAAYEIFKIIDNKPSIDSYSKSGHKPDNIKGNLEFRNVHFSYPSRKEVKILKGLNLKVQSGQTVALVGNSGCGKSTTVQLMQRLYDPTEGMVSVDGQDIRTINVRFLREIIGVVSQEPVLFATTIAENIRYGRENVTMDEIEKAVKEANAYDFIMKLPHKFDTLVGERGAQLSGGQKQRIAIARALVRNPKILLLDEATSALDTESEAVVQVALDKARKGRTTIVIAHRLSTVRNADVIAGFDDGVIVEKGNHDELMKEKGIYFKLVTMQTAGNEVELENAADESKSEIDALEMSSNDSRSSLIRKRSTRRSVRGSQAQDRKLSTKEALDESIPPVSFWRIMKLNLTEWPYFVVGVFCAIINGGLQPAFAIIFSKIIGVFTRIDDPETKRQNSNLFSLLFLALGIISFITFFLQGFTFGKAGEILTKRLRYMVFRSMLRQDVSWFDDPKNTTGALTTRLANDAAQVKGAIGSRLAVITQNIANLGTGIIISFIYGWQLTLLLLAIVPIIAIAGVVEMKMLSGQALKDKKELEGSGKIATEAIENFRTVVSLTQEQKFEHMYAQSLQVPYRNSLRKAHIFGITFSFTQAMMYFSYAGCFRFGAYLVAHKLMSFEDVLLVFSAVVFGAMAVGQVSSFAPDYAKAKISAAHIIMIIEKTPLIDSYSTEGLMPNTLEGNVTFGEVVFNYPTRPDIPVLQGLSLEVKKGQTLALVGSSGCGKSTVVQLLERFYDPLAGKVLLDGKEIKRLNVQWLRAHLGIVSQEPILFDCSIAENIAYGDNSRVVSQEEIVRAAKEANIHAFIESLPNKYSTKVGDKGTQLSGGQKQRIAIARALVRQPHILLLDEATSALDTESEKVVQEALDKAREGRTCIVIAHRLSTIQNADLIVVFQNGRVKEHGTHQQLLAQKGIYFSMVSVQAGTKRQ
As to the kind of experiment: MDR1-MDCK permeability and efflux. Format: in vitro ADME. The following applies: for Papp A→B at 120 min, 5 μM / Papp B→A at 120 min, 5 μM / recovery at 120 min, 5 μM: dog, MDCK-MDR1, pH 7.4, 5 μM. On the procedure:
Test Direction Recovery Papp (10-6 cm/s) Efflux Brain
Article (%) R1 R2 AVG Ratio Penetration
Supplemental Figure 4. Blood-brain barrier (BBB) penetration potential using MDR1-MDCK cell monolayers. All P-glycoprotein (MDR1) permeability and efflux studies were conducted at Absorption Systems (parent company Pharmaron). In brief, MDR1-MDCK monolayers were grown to confluence on collagen-coated, microporous membranes in 12-well assay plates. The permeability assay buffer was Hanks’ balanced salt solution containing 10 mM HEPES and 15 mM glucose at a pH of 7.4. The buffer in the receiver chamber also contained 1% bovine serum albumin. The dosing solution concentration was 5 μM of test article in the assay buffer. Cell monolayers were dosed on the apical side (A-to-B) or basolateral side (B-to-A) and incubated at 37°C with 5% CO2 in a humidified incubator. Samples were taken from the donor and receiver chambers after 120 minutes. Each determination was performed in duplicate. The flux of lucifer yellow was also measured post-experimentally for each monolayer to ensure no damage was inflicted to the cell monolayers during the flux period. All samples were assayed by LC-MS/MS using electrospray ionization. Efflux ratio (ER) is defined as Papp (B-to-A) / Papp […]

Where [6] appears, read: CD-1 (C3TD343), ICR (C3TD078), mouse, brain, intraperitoneal, 100 mg/kg, 100 mg/kg i.p., mice, read-out: P:B.
The mark [7] stands for this setting: L2, 0 Gy, read-out: log(GI50) (converted).
[8] abbreviates: L2, 7-day CTG, pGI50 = −log10[GI50(M)], read-out: pGI50 (converted).
Setting [9] is: Homo sapiens, 3832 + RAD (2 Gy), read-out: log(GI50) (converted).
Where [10] appears, read: Homo sapiens, […], 3832, 7-day CTG, pGI50 = −log10[GI50(M)], read-out: pGI50 (converted).
[11] abbreviates: Homo sapiens, 3832, 0 Gy, read-out: log(GI50) (converted).

Read-outs that look alike come from different tables or passages of the source.

Regarding `COc1cc(Cn2nnc3c2CCc2c(-c4cn(C)nc4C(F)(F)F)cc(Cn4ccnc4C)cc2-3)cc(OC)c1` [C3TD078], the Kp in series [1] (setting [6]) was less than 0.05. Further, the GI50 in series [2] (setting [7]) was 5.01e-06 M; in series [2] (setting [8]), 3.98e-06 M; in series [3] (setting [9]), 1.26e-06 M; in series [3] (setting [10]), 2e-06 M.
For `COc1cc(Cn2nnc3c2CCc2c-3cc(Cn3ccnc3C)cc2C2CC2)ccc1F` [C3TD343], the “total brain AUC” value in series [1] (100 mg/kg i.p., mice) worked out at 2.9 µM·h. The “total brain Cmax” value in series [1] (100 mg/kg i.p., mice) amounted to 2.4 µM. Further, the “duration of brain exposure” value in series [1] (i.p., mice) is reported as “less than 4 hours”. The Kp in series [1] (setting [6]) was 0.25. For the same molecule, the GI50 in series [2] (L2 + RAD (2 Gy), read-out: log(GI50) (converted)) is 7.94e-06 M; in series [2] (setting [8]), 6.31e-06 M; in series [3] (setting [9]), 3.16e-06 M; in series [3] (setting [11]) it was 3.16e-06 M; in series [3] (setting [10]), 2.51e-06 M. The “unidirectional brain uptake constant Kin” value in series [4] is on record as > 50 × 10^–4 mL/s/g. Further, the “Brain Penetration Classification” value in series [5] is “Low”. Further, the “efflux by P-glycoprotein” value in series [5] (MDR1-MDCK permeability studies) was “strongly effluxed”. In addition, the Papp A→B (commonly the apparent permeability from the apical to the basolateral side of a cell layer) at 120 min, 5 μM in series [5] (read-out: Papp A-to-B, AVG) is 0.113 ×10⁻⁶ cm/s; in series [5] (read-out: Papp A-to-B, R1) it was 0.131 ×10⁻⁶ cm/s; in series [5] (read-out: Papp A-to-B, R2), 0.0949 ×10⁻⁶ cm/s. Moreover, the Papp B→A (usually the apparent permeability from the basolateral to the apical side of a cell layer) at 120 min, 5 μM turned out to be 43.3 ×10⁻⁶ cm/s in series [5] (read-out: Papp B-to-A, AVG); 40.2 ×10⁻⁶ cm/s in series [5] (read-out: Papp B-to-A, R1); 46.3 ×10⁻⁶ cm/s in series [5] (read-out: Papp B-to-A, R2). Also, the recovery at 120 min, 5 μM in series [5] (read-out: Recovery, A-to-B) came out at 71.2%; in series [5] (read-out: Recovery, B-to-A) it was 76.8%.
The molecule `COc1cc(CN2CCc3c(cc(Cn4ccn(C)c4=N)cc3-c3ccc(F)cc3C)C2=O)cc(OC)c1` [C16, reference compound] had a Cmax brain in series [1] (10 mg/kg IP, male mice) of 102 nM. Besides, in series [1] (10 mg/kg IP, male mice, 6 hrs interval), the AUC brain was determined as 357 nM·h. For the same molecule, the Tmax (usually the time at which the peak concentration occurs) in series [1] (CD-1, mouse, brain, 10 mg/kg IP, male mice, read-out: Tmax brain) was found to be 30 min; in series [1] (CD-1, mouse, plasma, 10 mg/kg IP, male mice, read-out: Tmax plasma) it was 30 min. The concentration in series [1] (CD-1, mouse, plasma, 10 mg/kg IP, male mice) peaked (Cmax) at 14.2 µM. Further, in series [1] (CD-1, mouse, plasma, 10 mg/kg IP, male mice, 6 hrs interval), the AUC (in general, concentration integrated over time) came out at 11.9 µM·h. Moreover, in series [1] (CD-1, mouse, brain, ip, 10 mg/kg, C16 10 mg/kg IP, male mice, read-out: brain/plasma ratio P:B (AUC)), the Kp was less than 0.05. The GI50 in series [2] (setting [7]) was 2e-06 M; in series [2] (setting [8]) it was 3.98e-06 M; in series [3] (setting [11]), 1e-06 M; in series [3] (Homo sapiens, 3832, 7-day CTG, pGI50 = −log10[GI50(M)], read-out: pGI50 (converted)), 8.32e-07 M. The entries for the “log(GI50)” value in series [2] (L2 + RAD (2 Gy)) and in series [3] (3832 + RAD (2 Gy)) were -5.7 M and -6.0 M, respectively. Further, the “unidirectional brain uptake constant Kin” value in series [4] was < 5 × 10^–4 mL/s/g. Besides, the “Brain Penetration Classification” value in series [5] was “Low”. Moreover, the Papp A→B at 120 min, 5 μM in series [5] (read-out: Papp A-to-B, AVG) was 0.715 ×10⁻⁶ cm/s; in series [5] (read-out: Papp A-to-B, R1), 0.556 ×10⁻⁶ cm/s; in series [5] (read-out: Papp A-to-B, R2), 0.875 ×10⁻⁶ cm/s. Besides, the Papp B→A at 120 min, 5 μM in series [5] (read-out: Papp B-to-A, AVG) was 1.7 ×10⁻⁶ cm/s; in series [5] (read-out: Papp B-to-A, R1), 1.49 ×10⁻⁶ cm/s; in series [5] (read-out: Papp B-to-A, R2), 1.91 ×10⁻⁶ cm/s. Also, the recovery at 120 min, 5 μM came to 85.6% in series [5] (read-out: Recovery, A-to-B) and 87.3% in series [5] (read-out: Recovery, B-to-A).
